The text below walks through data of patent US20160095843A1, “PYRAZOLOPYRROLIDINE DERIVATIVES AND THEIR USE IN THE TREATMENT OF DISEASE” (NOVARTIS AG, priority 2013, published 2016).

The test system of one assay is K-562 cells. Put plainly: Cell growth inhibition assay (CellTiter-Glo), K-562. The assay is classed as cell-based, human. The following applies: Homo sapiens, K562. As to the method: (§1) Cell Growth Inhibition Assay
(§2) The human leukemia cell lines MV-4-11, THP-1 and K-562 were employed to characterize the effect of BET inhibitors on cellular proliferation and viability. Cells were obtained from the American Type Culture Collection (ATCC) and cultured at 37° C. in a humidified 5% CO2 incubator in the following media: MV-4-11: DMEM high glucose (Animed #1-26F01-I), 10% FCS (Animed #2-01F26-I), 4 mM L-Glutamine (Animed #5-10K50), 1 mM Sodium Pyruvate (Animed # G03625P), 1× Penicillin-Streptomycin (Animed # F12478P); K-562: Iscove's MEM (Animed #1-28F16-I), 10% FCS (Animed #2-01F26-I), 4 mM L-Glutamine (Animed #5-10K50), 1× Penicillin-Streptomycin (Animed # F12478P); THP-1: RPMI-1640 (Animed #1-41F01-I), 10% FCS (Animed #2-01F26-I), 2 mM L-Glutamine (Animed #5-10K50), 10 mM HEPES (Animed #5-31F100), 1 mM Sodium Pyruvate (Animed # G03625P), 1× Penicillin-Streptomycin (Animed # F12478P). The AML lines MV-4-11 and THP-1 are very sensitive to BET inhibitors and show massive cell death upon BET inhibition (Zuber et al., Nature, 478 (2011), 524-8). Compound-mediated suppression of cell proliferation/viability was assessed by quantification of cellular ATP levels using the CellTiter-Glo (CTG) reagent (Promega). Briefly, cells were seeded in 20 μl fresh medium into 384-well plates, followed by addition of 5 μL medium containing compound dilutions at 5-fold their final intended concentration. Dose-response effects were assessed by 3-fold serial dilutions of the test compound, starting at 10 μM. Following incubation of the cells for 4 days at 37° C. and 5% CO2, the effect of inhibitors on cell viability was quantified following addition of 20 μl CTG and luminescence quantification (integration time: 100 ms) as per vendor manual, using a correspondingly equipped Tecan M200 multi-mode platereader (TECAN, Switzerland). For data analysis, the assay background value determined in wells containing medium, but no cells, was subtracted from all data points. To enable differentiation of cytotoxic from cytostatic compounds, the number of viable cells is assessed relative to that observed at the time of compound addition using a separate cell plate (day 0). The effect of a particular test compound concentration on cell proliferation/viability is expressed as percentage of the background- and day 0-corrected luminescence reading obtained for cells treated with vehicle only (DMSO, 0.1% final concentration), which is set as 100%, whereas that luminescence reading for wells containing medium is set as −100%. Compound concentrations leading to half-maximal (1050) and total growth inhibition (TGI) were determined using standard four parameter curve fitting.

A further assay has as its system MV-4-11 cells. Put plainly: Cell growth inhibition assay (CellTiter-Glo), MV-4-11. The assay is classed as cell-based. The note with it: Homo sapiens, MV4-11. As to the method:
as §1, §2

The test system of a further assay is THP-1 cells. The experiment in a line: Cell growth inhibition assay (CellTiter-Glo), THP-1. The note with it: Homo sapiens. The assay is classed as cell-based. Here is the method: as §1, §2

As to `CC(=O)N1CC(n2nc(C)c3c2C(=O)N(c2cc(C)c4nnc(C)n4c2)C3c2ccc(Cl)cc2)C1` (stereo not drawn) [Example 154, 1-(1-acetylazetidin-3-yl)-4-(4-chlorophenyl)-5-(3,8-dimethyl-[1,2,4]triazolo[4,3-a]pyridin-6-yl)-3-methyl-4,5-dihydropyrrolo[3,4-c]pyrazol-6(1H)-one], the GI50 in the assay on K-562 cells was determined as 956 nM; in the assay on MV-4-11 cells, 59 nM; with THP-1 cells it was 243 nM.

`Cc1c2c(nn1C1CC1)C(=O)N(c1cc(Cl)c(=O)n(C)c1)[C@H]2c1ccc(Cl)cc1` [Example 18, (S)-5-(5-chloro-1-methyl-6-oxo-1,6-dihydropyridin-3-yl)-4-(4-chlorophenyl)-2-cyclopropyl-3-methyl-4,5-dihydropyrrolo[3,4-c]pyrazol-6(2H)-one]: the GI50 with K-562 cells is above 10000 nM; with MV-4-11 cells, 3330 nM; in the assay with THP-1 cells, above 10000 nM.

As to `Cc1cc(N2C(=O)c3nn(C4CC4)c(C)c3[C@H]2c2ccc(Cl)cc2)cn(C)c1=O` [Example 21, (R)-4-(4-chlorophenyl)-2-cyclopropyl-5-(1,5-dimethyl-6-oxo-1,6-dihydropyridin-3-yl)-3-methyl-4,5-dihydropyrrolo[3,4-c]pyrazol-6(2H)-one], the GI50 in the assay on K-562 cells was found to be 266 nM; in the assay on MV-4-11 cells, 22.3 nM; with THP-1 cells, 36.6 nM.

`Cc1ncccc1-n1nc(C)c2c1C(=O)N(c1cc(C)c(=O)n(C)c1)C2c1ccc(Cl)cc1` (stereo not drawn) [Example 82, 4-(4-chlorophenyl)-5-(1,5-dimethyl-6-oxo-1,6-dihydropyridin-3-yl)-3-methyl-1-(2-methylpyridin-3-yl)-4,5-dihydropyrrolo[3,4-c]pyrazol-6(1H)-one]: the GI50 with K-562 cells stood at 920 nM; with MV-4-11 cells, 94.8 nM; in the assay on THP-1 cells, 222 nM.

Consider `Cc1nn(-c2ccnn2C)c2c1[C@H](c1ccc(Cl)cc1)N(c1cc(C)c3nnc(C)n3c1)C2=O` [Example 124, (S)-4-(4-chlorophenyl)-5-(3,8-dimethyl-[1,2,4]triazolo[4,3-a]pyridin-6-yl)-3-methyl-1-(1-methyl-1H-pyrazol-5-yl)-4,5-dihydropyrrolo[3,4-c]pyrazol-6(1H)-one], for which the figures for the GI50 in the assay with K-562 cells, with MV-4-11 cells and in the assay with THP-1 cells were 2520 nM, 296 nM and 695 nM, respectively.

On to `Cc1nn(C(C)C)c2c1[C@H](c1ccc(Cl)cc1)N(c1cc(C)c(=O)n(C)c1)C2=O` [Example 103, (S)-4-(4-chlorophenyl)-5-(1,5-dimethyl-6-oxo-1,6-dihydropyridin-3-yl)-1-isopropyl-3-methyl-4,5-dihydropyrrolo-[3,4-c]pyrazol-6(1H)-one], for which the figures for the GI50 in the assay with K-562 cells, in the assay with MV-4-11 cells and with THP-1 cells were above 10000 nM, 3590 nM and 7290 nM, respectively.

On to `Cc1cc(N2C(=O)c3n[nH]cc3C2c2ccc(Cl)cc2)cn(C)c1=O` (stereo not drawn) [Example 26, 4-(4-chlorophenyl)-5-(1,5-dimethyl-6-oxo-1,6-dihydropyridin-3-yl)-4,5-dihydropyrrolo[3,4-c]pyrazol-6(2H)-one], for which the GI50 in the assay on K-562 cells was 1500 nM; in the assay with MV-4-11 cells it was 204 nM; in the assay on THP-1 cells, 297 nM.

With `Cc1nn(C2CC2)c2c1C(c1ccc(OC(F)(F)F)cc1)N(c1cc(C)c(=O)n(C)c1)C2=O` (stereo not drawn) [Example 95, 1-cyclopropyl-5-(1,5-dimethyl-6-oxo-1,6-dihydropyridin-3-yl)-3-methyl-4-(4-(trifluoromethoxy)phenyl)-4,5-dihydropyrrolo-[3,4-c]pyrazol-6(1H)-one], the GI50 with K-562 cells stood at 868 nM; with MV-4-11 cells, 140 nM; with THP-1 cells it was 245 nM.

For the molecule `CCc1nn(C(=O)N(C)C)c2c1C(c1ccc(Cl)cc1)N(c1cc(C)c(=O)n(C)c1)C2=O` (stereo not drawn) [Example 147, 4-(4-chlorophenyl)-5-(1,5-dimethyl-6-oxo-1,6-dihydropyridin-3-yl)-3-ethyl-N,N-dimethyl-6-oxo-5,6-dihydropyrrolo[3,4-c]pyrazole-1(4H)-carboxamide], the GI50 worked out at 792 nM with K-562 cells, 67 nM in the assay on MV-4-11 cells and 157 nM in the assay on THP-1 cells.

Regarding `Cc1nn(C2CC2)c2c1C(c1ccc(F)cc1F)N(c1cc(C)c3nnc(C)n3c1)C2=O` (stereo not drawn) [Example 176, 1-cyclopropyl-4-(2,4-difluorophenyl)-5-(3,8-dimethyl-[1,2,4]triazolo[4,3-a]pyridin-6-yl)-3-methyl-4,5-dihydropyrrolo-[3,4-c]pyrazol-6(1H)-one], the values for the GI50 in the assay with K-562 cells, in the assay on MV-4-11 cells and in the assay with THP-1 cells were 145 nM, 30.3 nM and 55.6 nM, respectively.

On to `Cc1n[nH]c2c1[C@@H](c1ccc(Cl)cc1)N(c1cc(C)c3nnc(C)n3c1)C2=O` [Example 165, (R)-4-(4-chlorophenyl)-5-(3,8-dimethyl-[1,2,4]triazolo[4,3-a]pyridin-6-yl)-3-methyl-4,5-dihydropyrrolo[3,4-c]pyrazol-6(1H)-one], for which the figures for the GI50 in the assay on K-562 cells, in the assay with MV-4-11 cells and in the assay with THP-1 cells were 190 nM, 21.7 nM and 38.3 nM, respectively.

As for `Cn1cc(N2C(=O)c3c(cnn3C3CC3)C2c2ccc(Cl)cc2)cc(Cl)c1=O` (stereo not drawn) [Example 35, 5-(5-chloro-1-methyl-6-oxo-1,6-dihydropyridin-3-yl)-4-(4-chlorophenyl)-1-cyclopropyl-4,5-dihydropyrrolo[3,4-c]pyrazol-6(1H)-one], the GI50 in the assay on K-562 cells turned out to be 905 nM; with MV-4-11 cells, 105 nM; in the assay on THP-1 cells, 239 nM.

As to `COc1ncccc1-n1nc(C)c2c1C(=O)N(c1cc(C)c3nnc(C)n3c1)C2c1ccc(Cl)cc1` (stereo not drawn) [Example 101, 4-(4-chlorophenyl)-5-(3,8-dimethyl-[1,2,4]triazolo[4,3-a]pyridin-6-yl)-1-(2-methoxypyridin-3-yl)-3-methyl-4,5-dihydropyrrolo[3,4-c]pyrazol-6(1H)-one], the GI50 in the assay with K-562 cells was found to be 261 nM; in the assay on MV-4-11 cells it was 25.7 nM; in the assay with THP-1 cells, 53 nM.

For the molecule `Cc1[nH]nc2c1C(c1ccc(Cl)cc1)N(c1cc(C)c(=O)n(C)c1)C2=O` (stereo not drawn) [Example 27, 4-(4-chlorophenyl)-5-(1,5-dimethyl-6-oxo-1,6-dihydropyridin-3-yl)-3-methyl-4,5-dihydropyrrolo[3,4-c]pyrazol-6(2H)-one], the GI50 with K-562 cells worked out at 463 nM; with MV-4-11 cells, 55.9 nM; with THP-1 cells, 120 nM.

For `Cc1nn(C2CC2)c2c1C(c1ccc(Cl)cc1)N(c1cc(C)c3nnc(C(F)F)n3n1)C2=O` (stereo not drawn) [Example 195, 4-(4-chlorophenyl)-1-cyclopropyl-5-(3-(difluoromethyl)-8-methyl-[1,2,4]triazolo[4,3-b]pyridazin-6-yl)-3-methyl-4,5-dihydropyrrolo-[3,4-c]pyrazol-6(1H)-one], the GI50 was found to be 127 nM in the assay with K-562 cells, 23.9 nM in the assay on MV-4-11 cells and 30.3 nM in the assay with THP-1 cells.

`Cc1[nH]nc2c1C(c1ccc(Cl)cc1F)N(c1cc(C)c(=O)n(C)c1)C2=O` (stereo not drawn) [Example 196, 4-(4-chloro-2-fluorophenyl)-5-(1,5-dimethyl-6-oxo-1,6-dihydropyridin-3-yl)-3-methyl-4,5-dihydropyrrolo-[3,4-c]pyrazol-6(2H)-one]: the GI50 with K-562 cells is 921 nM; in the assay on MV-4-11 cells it was 144 nM; with THP-1 cells, 204 nM.

Regarding `Cc1nn(C2CC2)c2c1C(c1ccc(Cl)cc1F)N(c1cc(C)c(=O)n(C)c1)C2=O` (stereo not drawn) [Example 179, 4-(4-chloro-2-fluorophenyl)-1-cyclopropyl-5-(1,5-dimethyl-6-oxo-1,6-dihydropyridin-3-yl)-3-methyl-4,5-dihydropyrrolo[3,4-c]pyrazol-6(1H)-one], the results for the GI50 with K-562 cells, in the assay on MV-4-11 cells and in the assay on THP-1 cells were 372 nM, 77.4 nM and 112 nM, respectively.

For the molecule `COc1ncccc1-n1nc2c(c1C)C(c1ccc(F)cc1F)N(c1cc(C)c3nnc(C)n3c1)C2=O` (stereo not drawn) [Example 193, 4-(2,4-difluorophenyl)-5-(3,8-dimethyl-[1,2,4]triazolo[4,3-a]pyridin-6-yl)-2-(2-methoxypyridin-3-yl)-3-methyl-4,5-dihydropyrrolo-[3,4-c]pyrazol-6(2H)-one], the results for the GI50 in the assay with K-562 cells, with MV-4-11 cells and with THP-1 cells were 202 nM, 58 nM and 66.2 nM, respectively.

For `Cc1cc(N2C(=O)c3c(c(C(F)(F)F)nn3C3CC3)C2c2ccc(Cl)cc2)cn(C)c1=O` (stereo not drawn) [Example 45, 4-(4-chlorophenyl)-1-cyclopropyl-5-(1,5-dimethyl-6-oxo-1,6-dihydropyridin-3-yl)-3-(trifluoromethyl)-4,5-dihydropyrrolo[3,4-c]pyrazol-6(1H)-one], the GI50 is 994 nM with K-562 cells, 251 nM with MV-4-11 cells and 357 nM in the assay with THP-1 cells.
